Patent US20020035061A1, “COMPOSITIONS AND METHODS FOR TREATING INFECTIONS USING CATIONIC PEPTIDES ALONE OR IN COMBINATION WITH ANTIBIOTICS” (priority 1996, published 2002)
Where two headings read alike, the source gives them in different places.

Columns and labels:
[1] = test system: P. aeruginosa; format: cell-based; conditions: for Peptide MIC values: agarose dilution
[2] = test system: H. influenzae; experiment: Agarose dilution assay (MIC); format: cell-based; conditions: H. influenzae HIN001
[3] = test system: bacterial isolates; experiment: microbe, parasite or virus in culture; format: cell-based
[4] = test system: MSSA (Smith, ATCC # 19640); experiment: In vivo efficacy, MSSA infection; set-up: species or system S. aureus; conditions: formulation D; for % Survival: 60 min post-infection, end of eight day observation
[5] = test system: E. coli; format: cell-based; conditions: for Peptide MIC values: agarose dilution
[6] = test system: S. pneumoniae; experiment: Agarose dilution assay (MIC); format: cell-based; conditions: for Peptide MIC values: agarose dilution
[7] = test system: E. faecium; format: cell-based

Sequence: ILKKWPWWPWRRK [MBI 11CN]
- MIC ([1]; P. aeruginosa PA003): >128 µg/mL
- Peptide MIC values ([1]; P. aeruginosa ATCC 27853): >128 µg/mL
- Peptide MIC values ([1]; P. aeruginosa NCTC 10662): >128 µg/mL
- MIC [2]: >128 µg/mL
- Peptide MIC + Tobramycin ([3]; A. baumannii ABI001): 16 µg/mL
- Tobramycin MIC + Peptide ([3]; A. baumannii ABI001): 4 µg/mL
- Peptide MIC Alone ([3]; A. baumannii ABI001, Tobramycin section): 64 µg/mL
- Peptide MIC + Tobramycin ([3]; E. coli ECO006): 0.25 µg/mL
- Tobramycin MIC + Peptide ([3]; E. coli ECO006): 4 µg/mL
- Peptide MIC Alone ([3]; E. coli ECO006, Tobramycin section): 8 µg/mL
- Peptide MIC + Piperacillin ([3]; P. aeruginosa 22): 32 µg/mL
- Piperacillin MIC + Peptide ([3]; P. aeruginosa 22): 4 µg/mL
- Peptide MIC Alone ([3]; P. aeruginosa 22, Piperacillin section): 64 µg/mL
- Peptide MIC + Piperacillin ([3]; P. aeruginosa 23): 4 µg/mL
- Piperacillin MIC + Peptide ([3]; P. aeruginosa 23): 64 µg/mL
- Peptide MIC Alone ([3]; P. aeruginosa 23, Piperacillin section): 128 µg/mL
- Peptide MIC + Tobramycin ([3]; P. aeruginosa PA032): 4 µg/mL
- Tobramycin MIC + Peptide ([3]; P. aeruginosa PA032): 8 µg/mL
- Peptide MIC Alone ([3]; P. aeruginosa PA032, Tobramycin section): >128 µg/mL
- Peptide MIC + Piperacillin ([3]; S. aureus 18 MRSA): 16 µg/mL
- Piperacillin MIC + Peptide ([3]; S. aureus 18 MRSA): 0.5 µg/mL
- Peptide MIC Alone ([3]; S. aureus 18 MRSA, Piperacillin section): 32 µg/mL
- Peptide MIC + Piperacillin ([3]; S. aureus 19 MRSA): 1 µg/mL
- Piperacillin MIC + Peptide ([3]; S. aureus 19 MRSA): 64 µg/mL
- Peptide MIC Alone ([3]; S. aureus 19 MRSA, Piperacillin section): 8 µg/mL
- Peptide MIC + Tobramycin ([3]; S. maltophilia SMA029): 2 µg/mL
- Tobramycin MIC + Peptide ([3]; S. maltophilia SMA029): 64 µg/mL
- Peptide MIC Alone ([3]; S. maltophilia SMA029, Tobramycin section): >128 µg/mL
- Peptide MIC + Tobramycin ([3]; S. maltophilia SMA035): 32 µg/mL
- Tobramycin MIC + Peptide ([3]; S. maltophilia SMA035): 4 µg/mL
- Peptide MIC Alone ([3]; S. maltophilia SMA035, Tobramycin section): 128 µg/mL
- FIC ([3]; peptide + Piperacillin, P. aeruginosa 22): 0.52
- FIC ([3]; peptide + Piperacillin, P. aeruginosa 23): 0.53
- FIC ([3]; peptide + Piperacillin, S. aureus 18 MRSA): 0.50
- FIC ([3]; peptide + Piperacillin, S. aureus 19 MRSA): 0.38
- FIC ([3]; peptide + Tobramycin, A. baumannii ABI001): 0.50
- FIC ([3]; peptide + Tobramycin, E. coli ECO006): 0.53
- FIC ([3]; peptide + Tobramycin, P. aeruginosa PA032): 0.52
- FIC ([3]; peptide + Tobramycin, S. maltophilia SMA029): 0.51
- FIC ([3]; peptide + Tobramycin, S. maltophilia SMA035): 0.38
- % Survival ([4]; 12 mg/kg ip): 0%
- % Survival ([4]; 24 mg/kg ip): 50%
- mice rescued from MSSA infection ([4]; mice, ip 60 min post-infection, 35.7 mg/kg): 100%
- activity ([4]; mice, ip, dose levels lower than 35.7 mg/kg): little or no activity
- MIC ([5]; E. coli ECO002): 8 µg/mL
- Peptide MIC values ([5]; E. coli ATCC 25922): 16 µg/mL
- Peptide MIC values ([5]; E. coli NCTC 10418): 4 µg/mL
- MIC ([6]; S. pneumoniae SBSPN2): >128 µg/mL
- Peptide MIC values ([6]; S. pneumoniae 406LE8): >128 µg/mL
- Peptide MIC values ([6]; S. pneumoniae 60120): >128 µg/mL
- Peptide MIC values ([6]; S. pneumoniae ATCC 49619): 64 µg/mL
- MIC ([7]; E. faecium EFM001): 8 µg/mL
- Peptide MIC values ([7]; agarose dilution): 8 µg/mL
